Experimental findings from patent US20250122171A1, “Substituted Amine Compounds, Compositions and Methods of Use” (Deep Apple Therapeutics, Inc., priority 2023, published 2025) are described below.

Some results are limits rather than exact numbers.

One experiment deals with T1, human MRGPRX2 (Homo sapiens, UniProt Q96LB1).
T1 construct: expressed in transfected cells; host or cells: FlpIn TRex HEK293 (TRex-MRGPRX2-HEK), doxycycline-induced
T1 sequence (Q96LB1 1-330): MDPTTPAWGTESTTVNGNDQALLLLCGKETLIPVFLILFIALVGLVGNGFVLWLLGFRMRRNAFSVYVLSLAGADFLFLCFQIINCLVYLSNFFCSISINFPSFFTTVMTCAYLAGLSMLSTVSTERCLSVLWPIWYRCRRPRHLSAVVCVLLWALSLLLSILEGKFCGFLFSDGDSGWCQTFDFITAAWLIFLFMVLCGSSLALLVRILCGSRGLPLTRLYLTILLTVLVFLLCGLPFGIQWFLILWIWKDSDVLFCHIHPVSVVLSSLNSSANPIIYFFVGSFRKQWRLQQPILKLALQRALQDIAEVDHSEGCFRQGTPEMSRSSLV
Description: MRGPRX2 Activity Assay (IP-1 HTRF, antagonist mode). To be noted: FlpIn TRex-MRGPRX2-HEK293 cells; versus 1 μM Cortistatin-14 agonist; 30 minutes preincubation. Format: cell-based. An outline of the steps:
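Doxycycline-induced (100 ng/mL, 18-24 h) TRex HEK293 cells stably expressing human MRGPRX2, in HBSS/20 mM HEPES/0.1% BSA/10 mM LiCl. Compounds (top final 30 uM, 1% DMSO) preincubated 30 min, then agonist stimulation 1 h at 37° C without wash. IP-1 accumulation read by HTRF; IC50 from 4-parameter fit.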
(Time-resolved FRET reads energy transfer from a long-lived donor to a nearby acceptor.)
For the compound `C[C@@H](C(=O)Nc1cn2c(n1)CC[C@@H]2c1cc(F)cc(F)c1)N1CCC(F)(F)[C@H](c2c[nH]c(=O)c(CO)c2)C1` (single isomer, unassigned) [Compound 524], the IC50 is 50 nM. This lies in the double-digit nanomolar range.

For “(2S)-2-[(3R)-4,4-difluoro-3-(1-methyl-6-oxopyridin-3-yl)piperidin-1-yl]-N-{1-[(3,5-difluorophenyl)methyl]imidazol-4-yl}propanamide [Compound 78]”, the IC50 is > 30000 nM.

Take `C[C@@H](C(=O)Nc1cn2c(n1)CC[C@@H]2c1cc(F)cc(F)c1)N1CCC(F)(F)[C@@H](c2cc[n+]([O-])c(CN3CCC(F)(F)CC3)c2)C1` (single isomer, unassigned) [Compound 534]: the IC50 was > 30000 nM.

With `CNCc1cc(C2CN([C@@H](C)C(=O)Nc3cn4c(n3)CC[C@@H]4c3cc(F)cc(F)c3)CCC2(F)F)c[nH]c1=O` (stereo partly drawn) [Compound 529, (2S)-2-(4,4-difluoro-3-(5-((methylamino)methyl)-6-oxo-1,6-dihydropyridin-3-yl)piperidin-1-yl)-N—((R)-5-(3,5-difluorophenyl)-6,7-dihydro-5H-pyrrolo[1,2-a]imidazol-2-yl)propanamide], the IC50 amounted to 80 nM.

As for `C[C@@H](C(=O)Nc1cn([C@@H](C)c2cc(F)cc(F)c2)cn1)N1CCC(F)(F)[C@@H](c2cc[n+]([O-])cc2)C1` (single isomer, unassigned) [Compound 15], the IC50 was > 10000 nM.

For a further experiment, the system named is LAD-2 cells. Description: LAD2 Degranulation Assay (Protocol 2), β-hexosaminidase release. The class given is cell-based. To be noted: Homo sapiens, 0.5 μM Cortistatin-14, 2 h preincubation, cells without SCF 18-24 hours, top concentration 3 μM. How it is done: LAD-2 cells were maintained at 37° C. with 5% CO2 and grown in complete StemPro-34 media supplemented with 1% L-Glutamate, 1% penicillin/streptomycin, and 250 ng/mL human SCF.
18-24 hours prior to experiment, LAD-2 cells were collected and transferred to growth media without SCF. On the day of experiment, cells were collected by centrifugation and seeded in 384-well assay plates, at 4,000 cells per well in 17 μl freshly made assay buffer (10 mM HEPES, 137 mM NaCl, 2.7 mM KCl, 1.8 mM CaCl2), 1.0 mM MgCl2, 5.6 mM glucose, 0.4 mM NaH2PO4, 0.04% BSA, pH=7.40). For dose-response assays, compounds solubilized in 100% DMSO at 30 mM were serially diluted (1:3) first in 100% DMSO, and 2 intermediate dilutions with assay buffer were used to establish a final top concentration of 3 μM (in assay plate). For single point assays, dilution of DMSO stocks to 250 nM (in assay plate) was performed in the same manner as described for dose-response assays. Final DMSO concentration was kept constant at 0.1% across plates for all assays. Cortistatin-14 at 30 mM stock concentration was solubilized in HBSS+0.1% BSA, stored at −20° C. in 5 μl aliquots and discarded after one freeze-thaw cycle. Final concentration of agonist used in both dose-response and single point assays was 0.5 μM, prepared in assay buffer.
Antagonist equilibrium was established with 2 h preincubation, followed by no wash, direct addition, and stimulation of agonist for 30 minutes at 37° C. For detection of β-hexosaminidase activity, assay plates were centrifuged and 5 μl of cell-free supernatant from each assay well was transferred to a black-walled black-bottomed 384-well plate. Substrate solution (1 mM 4-Methylumbelliferyl N-acetyl-β-D-glucosaminide in citrate buffer, pH=4.5, […]) was added to each well and plates were incubated for 1 hour at 37° C. The plate was read on an EnVision XCite plate reader for umbelliferone fluorescence intensity (λex=355 nm, λem=460 nm). Background-subtracted data was analyzed using either GraphPad Prism or a custom Python script to calculate IC50 using either Log[Antagonist] vs. response (4 parameter) nonlinear regression (dose-response assays) or % control β-hexosaminidase activity (single point assays).
`C[C@@H](C(=O)Nc1cc2n(n1)CC[C@@H]2c1cc(F)cc(F)c1)N1CCC(F)(F)[C@@H](c2ccc(=O)[nH]c2)C1` (single isomer, unassigned) [Compound 530] gave an IC50 of 0.81 nM.

With `C[C@@H](C(=O)Nc1cn2c(n1)CC[C@@H]2c1ccc(F)cc1F)N1CCC(F)(F)[C@@H](c2ccc(=O)[nH]c2)C1` (single isomer, unassigned) [Compound 505], the IC50 was > 3000 nM.

In turn, `C[C@@H](C(=O)Nc1cn2c(n1)CC[C@H]2c1cc(F)ccc1F)N1CCC(F)(F)[C@@H](c2ccc(=O)[nH]c2)C1` (single isomer, unassigned) [Compound 504] came in with an IC50 of 31 nM.

With `C[C@@H](C(=O)Nc1cn2c(n1)CC[C@H]2c1ccc(F)cc1F)N1CCC(F)(F)[C@@H](c2ccc(=O)[nH]c2)C1` (single isomer, unassigned) [Compound 506], the IC50 was 30 nM. The IC50 values of the last two compounds are within 1.5-fold of each other.

Still in this experiment, the particulars now being: Homo sapiens, single point 250 nM, 0.5 μM Cortistatin-14, % control β-hexosaminidase activity.
With `C[C@@H](C(=O)Nc1nc2n(n1)[C@@H](c1cc(F)cc(F)c1)CC2)N1CCC(F)(F)[C@@H](c2ccc(=O)[nH]c2)C1` (single isomer, unassigned) [Compound 501], the activity at 0.25 µM stood at 101%.

As to `C[C@@H](C(=O)Nc1cn2c(n1)CC[C@@H]2c1cc(F)cc(F)c1)N1CCC(F)(F)C(c2cc[n+]([O-])c(C(O)CO)c2)C1` (stereo partly drawn) [Compound 545, 4-(1-((S)-1-(((R)-5-(3,5-difluorophenyl)-6,7-dihydro-5H-pyrrolo[1,2-a]imidazol-2-yl)amino)-1-oxopropan-2-yl)-4,4-difluoropiperidin-3-yl)-2-(1,2-dihydroxyethyl)pyridine 1-oxide], the activity at 0.25 µM worked out at 16%.

With `C[C@@H](C(=O)Nc1cn2c(n1)CC[C@@H]2c1cc(F)cc(F)c1)N1CCC(F)(F)[C@@H](c2c[nH]c(=O)c(C(N)C(F)(F)F)c2)C1` (single isomer, unassigned) [Compound 540], the activity at 0.25 µM is 124%.

On to `C[C@@H](C(=O)Nc1cn2c(n1)CCC[C@@H]2c1cc(F)cc(F)c1)N1CCC(F)(F)[C@@H](c2ccc(=O)[nH]c2)C1` (single isomer, unassigned) [Compound 507], for which the activity at 0.25 µM worked out at 130%.

With `C[C@@H](C(=O)Nc1cn2c(n1)CC[C@@H]2c1cc(F)cc(F)c1)N1CCC(F)(F)[C@@H](c2c[nH]c(=O)c([C@H](N)C(F)F)c2)C1` (single isomer, unassigned) [Compound 536], the activity at 0.25 µM is 89%.

Regarding `C[C@@H](C(=O)Nc1cn2c(n1)CC[C@@H]2c1cc(F)cc(F)c1)N1CCC(F)(F)[C@H](c2c[nH]c(=O)c([C@@H](N)C(F)F)c2)C1` (single isomer, unassigned) [Compound 539], the activity at 0.25 µM worked out at 12%.

`C[C@@H](C(=O)Nc1nc2n(n1)[C@H](c1cc(F)cc(F)c1)CC2)N1CCC(F)(F)[C@@H](c2ccc(=O)[nH]c2)C1` (single isomer, unassigned) [Compound 502]: the activity at 0.25 µM was 44%.

For the compound `C[C@@H](C(=O)Nc1cn2c(n1)CC[C@@H]2c1cc(F)cc(F)c1)N1CCC(F)(F)[C@@H](c2c[nH]c(=O)c([C@@H](N)C(F)F)c2)C1` (single isomer, unassigned) [Compound 538], the activity at 0.25 µM is 81%.

With `C[C@@H](C(=O)Nc1cn2c(n1)CC[C@@H]2c1cc(F)cc(F)c1)N1CCC(F)(F)[C@H](c2c[nH]c(=O)c(CN3CCC(F)(F)CC3)c2)C1` (single isomer, unassigned) [Compound 543], the activity at 0.25 µM was determined as 59%.

`C[C@@H](C(=O)Nc1cn2c(n1)CC[C@@H]2c1ccc(F)cc1F)N1CCC(F)(F)[C@@H](c2ccc(=O)[nH]c2)C1` (single isomer, unassigned) [Compound 505]: the activity at 0.25 µM was found to be 106%.

For the compound `C[C@@H](C(=O)Nc1cn2c(n1)CC[C@H]2c1cc(F)cc(F)c1)N1CCC(F)(F)CC1` (single isomer, unassigned) [Compound 510], the activity at 0.25 µM was found to be 87%.

As for `C[C@@H](C(=O)Nc1cn2c(n1)CC[C@@H]2c1cc(F)cc(F)c1)N1CCC(F)(F)[C@@H](c2c[nH]c(=O)c(CN3CCC(F)(F)CC3)c2)C1` (single isomer, unassigned) [Compound 542], the activity at 0.25 µM is 126%.

`C[C@@H](C(=O)Nc1cn2c(n1)CC[C@@H]2c1cc(F)cc(F)c1)N1CCC(F)(F)[C@H](c2c[nH]c(=O)c(C(N)C(F)(F)F)c2)C1` (single isomer, unassigned) [Compound 541]: the activity at 0.25 µM was found to be 11%.

Consider `C[C@@H](C(=O)Nc1cn2c(n1)CCC[C@H]2c1cc(F)cc(F)c1)N1CCC(F)(F)[C@@H](c2ccc(=O)[nH]c2)C1` (single isomer, unassigned) [Compound 508], for which the activity at 0.25 µM amounted to 110%.

Take `C[C@@H](C(=O)Nc1cn2c(n1)CC[C@@H]2c1cc(F)cc(F)c1)N1CCC(F)(F)CC1` (single isomer, unassigned) [Compound 509]: the activity at 0.25 µM turned out to be 11%.

In the case of `C[C@@H](C(=O)Nc1cn2c(n1)CC[C@@H]2c1cc(F)ccc1F)N1CCC(F)(F)[C@@H](c2ccc(=O)[nH]c2)C1` (single isomer, unassigned) [Compound 503], the activity at 0.25 µM was 105%.

In the case of `C[C@@H](C(=O)Nc1cn2c(n1)CC[C@@H]2c1cc(F)cc(F)c1)N1CCC(F)(F)[C@H](c2c[nH]c(=O)c([C@H](N)C(F)F)c2)C1` (single isomer, unassigned) [Compound 537], the activity at 0.25 µM was 10%.

For the compound `C[C@@H](C(=O)Nc1cn2c(n1)CC[C@@H]2c1cc(F)cc(F)c1)N1CCC(F)(F)C(c2c[nH]c(=O)c(CO)n2)C1` (stereo partly drawn) [Compound 544, (2S)-2-(4,4-difluoro-3-(6-(hydroxymethyl)-5-oxo-4,5-dihydropyrazin-2-yl)piperidin-1-yl)-N—((R)-5-(3,5-difluorophenyl)-6,7-dihydro-5H-pyrrolo[1,2-a]imidazol-2-yl)propanamide], the activity at 0.25 µM was found to be 81%.

Regarding `C[C@@H](C(=O)Nc1cn2c(n1)CC[C@H]2c1cc(F)ccc1F)N1CCC(F)(F)[C@@H](c2ccc(=O)[nH]c2)C1` (single isomer, unassigned) [Compound 504], the activity at 0.25 µM was found to be 13%.

For the compound `C[C@@H](C(=O)Nc1cn2c(n1)CC[C@@H]2c1cc(F)cc(F)c1)N1CCC(F)(F)C(c2c[nH]c(=O)c(C(O)CO)c2)C1` (stereo partly drawn) [Compound 546, (2S)—N—((R)-5-(3,5-difluorophenyl)-6,7-dihydro-5H-pyrrolo[1,2-a]imidazol-2-yl)-2-(3-(5-(1,2-dihydroxyethyl)-6-oxo-1,6-dihydropyridin-3-yl)-4,4-difluoropiperidin-1-yl)propanamide], the activity at 0.25 µM stood at 34%.

A word on the IC50: it is the concentration needed to halve the response being measured.
